Laboratory results: patent EP0761222A1, “Use of orotic acid for the preparation of a medicament for amelioration of microcirculation” (WÖRWAG PHARMA GmbH, priority 1995, dated 1997)

Key:
Format in all cases: in vivo
Kaninchen [1] = assay: Arteriosclerosis model under 2 % cholesterol diet, planimetric-photographic (density slice) and histological evaluation of vessels; details: 112 Tage 2 % cholesterol diet; for Index arteriosklerotischer Gefäßveränderungen (Gefäßverengungen): equimolar amounts, untreated control index 34,36, Fig. 1
From the text: (§1) In einer Versuchsreihe mit einem Arteriosklerose-Modell wurden Kaninchen über 112 Tage einer zweiprozentigen Cholesterindiät ausgesetzt und mit äquimolaren Mengen von` Magnesiumchlorid, Orotsäure und Magnesiumorotat bzw. in der Kontrollgruppe überhaupt nicht weiter behandelt. Zusätzlich zu histologischen Untersuchungen der Koronaarterien sowie der Aorta femoralis und renalis wurde der Zustand der Aorta an jeweils mehreren Stellen auch planimetrisch-photographisch dokumentiert. Mittels einer computergestützten, digitalen Methode der Oberflächenmessung ("density slice"-Methode) erhält man hierbei dreidimensionale Bilder, mit deren Hilfe auch eine Quantifizierung der cholesterininduzierten Lumeneinengungen möglich ist.

[2] = test system: Patienten mit Durchblutungsstörungen; assay: Effect of a single oral dose of Magnesiumorotat on flow properties of human blood, blood pressure and transcutaneous oxygen pressure
Experimental: 10 Patienten mit Durchblutungsstörungen wurden 4 g Magnesiumorotat zusammen mit ca. 150 ml Wasser verabreicht. Die Blutentnahme erfolgte vor und im Abstand von 15, 30, 60, 120 und 180 Minuten nach der Tabletteneinnahme. Direkt vor jeder Blutentnahme wurden Blutdruck, Puls, der transkutane Sauerstoffdruck, der transkutane Kohlendioxiddruck und die Heizleistungsabweichung gemessen. Es wurden folgende Blutparameter untersucht: • Hämatokrit • BSC • Plasmaviskosität • Erythrozytenaggregation • Erythrozytenfiltrabilität.
Es wurde eine Senkung des systemischen Druckes, insbesondere des systolischen Druckes, bis zum Zeitpunkt 60 Minuten nach Tablettenvergabe festgestellt. Die relative Plasmaviskosität erreicht 60 Minuten nach Tabletteneinnahme ihr Minimum mit anschließender Tendenz zur Normalisierung. In ähnlicher Weise verhält sich die Blutviskosität, die 30 Minuten nach Tabletteneinnahme ein Minimum aufweist.
Besonders interessant sind die Veränderungen der transkutanen Sauerstoffdruckwerte, die im Bereich des Vorfußes abgenommen werden. Bei diesen Patienten mit einer chronisch-arteriellen Verschlußkrankheit sind die tcpO2-Werte bekannterweise nicht sonderlich erniedrigt. Die Ergebnisse der pO2-Werte zeigen doch, daß es zu einem Anstieg der pO2-Werte kommt, die zu dem Zeitpunkt 15 und 30 Minuten statistisch gesichert sind. Dieser Anstieg der tcpO2-Werte überrascht und beruht auf den verbesserten Fließeigenschaften des Blutes.

Wistar-Ratten = assay: Hypertension animal model (ROG-Modell, LG-Modell), malignant hypertension
From the text: In den Hypertonie-Tiermodellen nach Rojo-Ortega-Genest (ROG-Modell) und Lörincz-Goracz (LG-Modell) wird bei Wistar-Ratten die Aorta zwischen den beiden Renalarterien unterbunden bzw. die Niere in eine Gummimanschette fest eingepreßt, was einen malignen Hypertonus hervorruft, also eine Hypertonie mit konstanter Erhöhung des arteriellen diastolischen Blutdruckes auf > 120 mmHg.
Das Ergebnis dieser Untersuchung ist in Fig. 2 dargestellt, wobei die dunklen Säulen jeweils den Beginn der ROG-Hypertonie anzeigen, während die hellen Säulen das Ende der ROG-Hypertonie darstellen. Links in Fig. 2 ist die ROG-Hypertonie ohne Behandlung gezeigt, während die beiden rechten Säulen den Verlauf der ROG-Hypertonie unter Zugabe von täglich 300 mg Magnesiumorotat wiedergibt.

Triathleten = assay: Double-blind, randomised, placebo-controlled triathlon test, parameters of energy metabolism in blood; details: four weeks Magnesiumorotat 17 mmol/Tag
From the text: In einer doppelblinden, randomisierten und placebokontrollierten Studie wurden 23 Triathleten einem 500 m Schwimm-, 20 km Fahrrad- und 5.000 m Lauftest nach einer vierwöchigen Magnesiumorotat-Supplementierung von 17 mmol/Tag unterworfen. Die Tests wurden ohne Pausen direkt hintereinander absolviert. Vor dem Test, zwischen den Disziplinen und am Ende wurde den Probanden Blut entnommen und auf Parameter des Energiestoffwechsels untersucht.

Kaninchen [3] = assay: Coronary angiography in the arteriosclerosis model of Beispiel 2; details: cholesterol stress, untreated control developed Mikroangiopathien
From the text: as §1
Zusätzlich zu den planimetrisch-photographischen Untersuchungen wurde bei der Versuchsreihe aus Beispiel 2 auch eine koronarangiographische Untersuchung vorgenommen.

In the case of [Cl-].[Cl-].[Mg+2] [Magnesiumchlorid, reference compound], the “Index arteriosklerotischer Gefäßveränderungen (Gefäßverengungen)” value (Kaninchen [1]) was 22,63.

In the case of O=C(O)c1cc(=O)[nH]c(=O)[nH]1 [Magnesiumorotat], the “systemischer Druck, insbesondere systolischer Druck” value ([2]; 4 g Magnesiumorotat oral, single dose, 10 patients, until 60 Minuten after tablet intake) was “Senkung”, the Erythrozytenfiltrationswerte ([2]; 4 g Magnesiumorotat oral, 15-180 Minuten after intake) was “zu keinem Zeitpunkt nach der oralen Gabe von Magnesiumorotat zu statistisch signifikanten Veränderungen” and the “transkutane Sauerstoffdruckwerte (tcpO2-Werte), Vorfuß” value ([2]; 4 g Magnesiumorotat oral, statistically confirmed at 15 and 30 Minuten) was “Anstieg”. The Hämatokritwert ([2]; 4 g Magnesiumorotat oral, tendency to rise again at end of test) was “temporäre Abnahme”, the “Zeitpunkt des Minimums der Blutviskosität” value ([2]; 4 g Magnesiumorotat oral, time after tablet intake) was 30 Minuten and the “Zeitpunkt des Minimums der relativen Plasmaviskosität” value ([2]; 4 g Magnesiumorotat oral, time after tablet intake, then tendency to normalise) was 60 Minuten. For the same compound, the “Mikrozirkulation (Kapillarfluß an dem Nagelbett)” value ([2]; acute oral dose of 4 g Magnesiumorotat) was “erheblich verbesserten”, the “Blut- und Plasmaviskosität” value ([2]; acute oral dose of 4 g Magnesiumorotat, patients with arterial occlusive disease) was “signifikant vermindert” and the “periarterielle Zellinfiltrationen und Herzmuskelzellausfälle” value (Wistar-Ratten; 300 mg Magnesiumorotat daily, compared with no treatment) was “weit weniger”. The “Blutdruck systolisch, Ende der ROG-Hypertonie” value (Wistar-Ratten; ROG-Modell, 300 mg Magnesiumorotat daily, untreated control animals 186 mmHg) was 152 mmHg, the “Blutdruck systolisch, Ausgangswert” value (Wistar-Ratten; ROG-Modell, start of ROG-Hypertonie, treated group, control 81 mmHg) was 79 mmHg and the Insulinkonzentration (Triathleten; control group 139 ± 101 %, significant) was 65 ± 43 % der Anfangswerte. For the same compound, the “Anstieg der Glukosekonzentration während des Tests” value (Triathleten; control group 187 ± 34 %, significantly lower) was 118 ± 45%, the “Wirkung bei Mikroangiopathien von kleinen und kleinsten Blutgefäßen am Herzen” value (Kaninchen [3]) was “präventive und therapeutische Wirkung” and the “Index arteriosklerotischer Gefäßveränderungen (Gefäßverengungen)” value (Kaninchen [1]) was 7,28. For the same compound, the “lumeneinengende Proliferation von Schaumzellen in den Koronarien” value (Kaninchen [1]; light/electron microscopy, enzyme histochemistry) was “weitaus am geringsten ausgeprägt”.

For O=C(O)c1cc(=O)[nH]c(=O)[nH]1 [Orotsäure], the “Wirkung bei Mikroangiopathien von kleinen und kleinsten Blutgefäßen am Herzen” value (Kaninchen [3]) was “präventive und therapeutische Wirkung” and the “Index arteriosklerotischer Gefäßveränderungen (Gefäßverengungen)” value (Kaninchen [1]) was 9,77.
